The values that follow come from PubChem BioAssay AID192 (DTP/NCI, 2004).

Several values for one entry are separate records, joined by “and”; a condition that tells them apart may be missing. Equal entries are not always repeated. Inconclusive results and toxic doses are left out.

The test system of this test is BDF1 mice, B16 melanoma ip, median survival T/C. Put plainly: NCI In Vivo Anticancer Drug Screen. Data for tumor model B16 Melanoma (intraperitoneal) in B6D2F1 (BDF1) mice. Particulars: endpoint: median survival time, higher = longer survival. The method in brief: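 In this screen, activity was judged from survival or tumor size in treated versus vehicle-treated tumor-bearing mice, reported as T/C.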

[1] abbreviates: dose: 50.0 mg/kg/injection, schedule: Q01DX009 (ip), vehicle: saline with Tween-80.
[2] abbreviates: dose: 100.0 mg/kg/injection, schedule: Q01DX009 (ip), vehicle: saline with Tween-80.
Where [3] appears, read: dose: 200.0 mg/kg/injection, schedule: Q01DX009 (ip), vehicle: saline with Tween-80.
[4] abbreviates: dose: 100.0 mg/kg/injection, schedule: Q01DX009 (ip), vehicle: saline.
Setting [5] is: dose: 200.0 mg/kg/injection, schedule: Q01DX009 (ip), vehicle: Klucel (hydroxypropylcellulose) (HPC).
The mark [6] stands for this setting: dose: 12.5 mg/kg/injection, schedule: Q01DX009 (ip), vehicle: saline.
Where [7] appears, read: dose: 25.0 mg/kg/injection, schedule: Q01DX009 (ip), vehicle: saline.
The mark [8] stands for this setting: dose: 50.0 mg/kg/injection, schedule: Q01DX009 (ip), vehicle: saline.
The mark [9] stands for this setting: dose: 6.25 mg/kg/injection, schedule: Q01DX009 (ip), vehicle: saline with Tween-80.
Setting [10] is: dose: 12.5 mg/kg/injection, schedule: Q01DX009 (ip), vehicle: saline with Tween-80.
The mark [11] stands for this setting: dose: 25.0 mg/kg/injection, schedule: Q01DX009 (ip), vehicle: saline with Tween-80.
Where [12] appears, read: dose: 25.0 mg/kg/injection, schedule: Q04DX003 (ip), vehicle: saline with Tween-80.
The mark [13] stands for this setting: dose: 6.25 mg/kg/injection, schedule: Q01DX009 (ip), vehicle: saline.
Where [14] appears, read: dose: 0.5 mg/kg/injection, schedule: Q01DX009 (ip), vehicle: saline with Tween-80.
The mark [15] stands for this setting: dose: 1.0 mg/kg/injection, schedule: Q01DX009 (ip), vehicle: saline with Tween-80.
Where [16] appears, read: dose: 2.0 mg/kg/injection, schedule: Q01DX009 (ip), vehicle: saline with Tween-80.
[17] abbreviates: dose: 25.0 mg/kg/injection, schedule: Q04DX003 (ip), vehicle: saline.
[18] abbreviates: dose: 50.0 mg/kg/injection, schedule: Q04DX003 (ip), vehicle: saline.

Regarding `ClCC1C(CCl)C2(Cl)C(Cl)=C(Cl)C1(Cl)C2(Cl)Cl` (stereo not given), the T/C is, setting by setting: under setting [1], 92 % of control; under setting [2], 93 % of control; under setting [3], 92 % of control.
`COCCOC1=C(N2CC2)C(=O)C(OCCOC)=C(N2CC2)C1=O`: the T/C reads like this: (dose: 0.5 mg/kg/injection, schedule: Q01DX009 (ip), vehicle: saline) 102 % of control and 123 % of control; (dose: 1.0 mg/kg/injection, schedule: Q01DX009 (ip), vehicle: saline) 110 % of control; (dose: 2.0 mg/kg/injection, schedule: Q01DX009 (ip), vehicle: saline) 94 % of control; (dose: 4.0 mg/kg/injection, schedule: Q01DX009 (ip), vehicle: saline) 150 % of control.
Take `Nc1ccc2cc(S(=O)(=O)O)cc(O)c2c1N=Nc1ccc(F)cc1`: under setting [4], the T/C was 87 % of control.
On to `O=C(/C=C/c1cccc2ccccc12)c1ccc(Cl)cc1`, for which the T/C is 92 % of control (dose: 50.0 mg/kg/injection, schedule: Q01DX009 (ip), vehicle: Klucel (hydroxypropylcellulose) (HPC)); 103 % of control (dose: 50.0 mg/kg/injection, schedule: Q04DX003 (ip), vehicle: Klucel (hydroxypropylcellulose) (HPC)); 96 % of control (dose: 100.0 mg/kg/injection, schedule: Q01DX009 (ip), vehicle: Klucel (hydroxypropylcellulose) (HPC)); 100 % of control (dose: 100.0 mg/kg/injection, schedule: Q04DX003 (ip), vehicle: Klucel (hydroxypropylcellulose) (HPC)); 92 % of control under setting [5]; 93 % of control (dose: 200.0 mg/kg/injection, schedule: Q04DX003 (ip), vehicle: Klucel (hydroxypropylcellulose) (HPC)).
For the compound `CC(Br)C(=O)NCC(=O)O` (stereo not given), the T/C runs as follows: under setting [6], 101 % of control; under setting [7], 90 % of control; under setting [1], 95 % of control; under setting [8], 101 % of control.
As for `Cc1ccc(C(=O)CCCCl)c(C)c1`, the T/C under setting [1] is 100 % of control, the T/C under setting [2] was 101 % of control and the T/C under setting [3] was 108 % of control.
Turning to `CCCCCCCCCCCCCC(C)NCc1ccccc1` (stereo not given), the T/C by setting is: (dose: 3.13 mg/kg/injection, schedule: Q01DX009 (ip), vehicle: saline with Tween-80) 100 % of control; under setting [9], 100 % of control; under setting [10], 100 % of control.
Regarding `COc1ccc(N=C=S)cc1N=C=S`, the T/C runs as follows: under setting [9], 102 % of control; (dose: 6.25 mg/kg/injection, schedule: Q04DX003 (ip), vehicle: saline with Tween-80) 105 % of control; under setting [10], 92 % of control; (dose: 12.5 mg/kg/injection, schedule: Q04DX003 (ip), vehicle: saline with Tween-80) 115 % of control; under setting [11], 100 % of control; under setting [12], 113 % of control.
`Cc1cccc(C)c1NS(=O)(=O)c1ccccc1`: the T/C under setting [5] is 87 % of control and the T/C (dose: 400.0 mg/kg/injection, schedule: Q01DX009 (ip), vehicle: Klucel (hydroxypropylcellulose) (HPC)) was 92 % of control.
For the compound `O=[N+]([O-])c1ccc2nc3c(nc2c1)-c1cccc2cccc-3c12`, the T/C is 103 % of control under setting [1], 100 % of control under setting [2] and 98 % of control under setting [3].
On to `C[C@@H]1C[C@](O)([C@@H](C)Cl)C(=O)O[C@@H]2CCN3CC=C(COC(=O)[C@]1(C)O)[C@H]23`, for which the T/C reads like this: (dose: 5.5 mg/kg/injection, schedule: Q01DX009 (ip), vehicle: saline) 97 % of control; (dose: 11.0 mg/kg/injection, schedule: Q01DX009 (ip), vehicle: saline) 90 % of control; (dose: 22.0 mg/kg/injection, schedule: Q01DX009 (ip), vehicle: saline) 111 % of control.
For the compound `C=CCCCCCCCCC(=O)N(CCOC)CCOC`, the T/C is, setting by setting: under setting [11], 115 % of control; under setting [12], 97 % of control; under setting [1], 102 % of control; (dose: 50.0 mg/kg/injection, schedule: Q04DX003 (ip), vehicle: saline with Tween-80) 91 % of control; (dose: 100.0 mg/kg/injection, schedule: Q04DX003 (ip), vehicle: saline with Tween-80) 89 % of control.
For `C=CC(=O)O`, the T/C by setting is: (dose: 3.13 mg/kg/injection, schedule: Q01DX009 (ip), vehicle: saline) 112 % of control; under setting [13], 114 % of control; under setting [6], 114 % of control.
With `OC(c1ccccc1)(c1ccccc1)C1CC1c1ccncc1` (stereo not given), the T/C runs as follows: under setting [6], 113 % of control; under setting [7], 95 % of control; under setting [8], 102 % of control; under setting [4], 107 % of control.
As to `O=c1oc2c(CN3CCCCC3)c(O)ccc2c2c1CCCC2`, the T/C is, setting by setting: (dose: 64.0 mg/kg/injection, schedule: Q01DX009 (ip), vehicle: Klucel (hydroxypropylcellulose) (HPC)) 112 % of control; (dose: 128.0 mg/kg/injection, schedule: Q01DX009 (ip), vehicle: Klucel (hydroxypropylcellulose) (HPC)) 98 % of control; (dose: 256.0 mg/kg/injection, schedule: Q01DX009 (ip), vehicle: Klucel (hydroxypropylcellulose) (HPC)) 106 % of control; (dose: 512.0 mg/kg/injection, schedule: Q01DX009 (ip), vehicle: Klucel (hydroxypropylcellulose) (HPC)) 93 % of control.
Turning to `CC[n+]1ccc(Nc2ccc(/C=C/c3ccc4cc(Nc5cc[n+](CC)cc5)ccc4[n+]3CC)cc2)cc1`, the T/C is, setting by setting: (dose: 2.5 mg/kg/injection, schedule: Q01DX009 (ip), vehicle: saline) 117 % of control; (dose: 5.0 mg/kg/injection, schedule: Q01DX009 (ip), vehicle: saline) 109 % of control; (dose: 10.0 mg/kg/injection, schedule: Q01DX009 (ip), vehicle: saline) 86 % of control.
Regarding `CN(N=O)C(=O)Nc1c[nH]c(=O)[nH]c1=O`, the T/C was 113 % of control (dose: 0.13 mg/kg/injection, schedule: Q01DX009 (ip), vehicle: saline with Tween-80); 105 % of control under setting [14]; 105 % of control under setting [15]; 115 % of control under setting [16]; 170 % of control (dose: 8.0 mg/kg/injection, schedule: Q01DX009 (ip), vehicle: saline with Tween-80); 182 % of control (dose: 16.0 mg/kg/injection, schedule: Q01DX009 (ip), vehicle: saline with Tween-80). The T/C was 193 % of control (dose: 16.5 mg/kg/injection, schedule: Q01DX009 (ip), vehicle: saline with Tween-80); 200 % of control under setting [11]; 176 % of control under setting [7]; 200 % of control (dose: 37.5 mg/kg/injection, schedule: Q01DX009 (ip), vehicle: saline with Tween-80).
For the compound `O=C(O)C(O)C(O)C(=O)O.O=C(O)C(O)C(O)C(=O)O.[O]=[V].[O]=[V]` (stereo not given), the T/C is 94 % of control under setting [6]; 100 % of control (dose: 12.5 mg/kg/injection, schedule: Q04DX003 (ip), vehicle: saline); 87 % of control under setting [7]; 100 % of control under setting [17]; 86 % of control under setting [18].
Turning to `CCC[CH2][Sn]1([CH2]CCC)[O]C(=O)C[S]1`, the T/C runs as follows: under setting [15], 103 % of control; under setting [16], 101 % of control.
With `CS(=O)(=O)c1cc(=O)[nH]c(=O)[nH]1`, the T/C by setting is: under setting [11], 95 % of control; under setting [2], 92 % of control.
In the case of `C[C@H]1CN1C1=CC(=O)C(N2C[C@@H]2C)=CC1=O`, the T/C under setting [14] is 102 % of control; the T/C under setting [15] was 106 % of control; the T/C (dose: 2.0 mg/kg/injection, schedule: Q01DX009 (ip), vehicle: Klucel (hydroxypropylcellulose) (HPC)) was 123 % of control; the T/C (dose: 4.0 mg/kg/injection, schedule: Q01DX009 (ip), vehicle: Klucel (hydroxypropylcellulose) (HPC)) was 115 % of control.
On to `CN(CO)c1nc(N(C)CO)nc(N(C)CO)n1`, for which the T/C was 111 % of control under setting [13]; 112 % of control and 118 % of control under setting [6]; 110 % of control and 124 % of control under setting [7]; 120 % of control under setting [8].
Regarding `CC1CN1P(=O)(N1CC1C)N1CC1C` (stereo not given), the T/C reads like this: under setting [13], 120 % of control; under setting [6], 100 % of control and 112 % of control; under setting [7], 113 % of control; under setting [17], 113 % of control; under setting [18], 120 % of control; (dose: 100.0 mg/kg/injection, schedule: Q04DX003 (ip), vehicle: saline) 93 % of control.
